Assay results as given in ChEMBL document CHEMBL1201862, “PubChem BioAssay data set” (2004).
The source made the active and inactive calls.

Legend:
[1] = PhoP regulon inhibitors in S. Typhimurium, SAR follow-up, synthesized compounds, round 3, GFP (AID 434996); type: functional
[2] = molecular target: T1, Heat shock factor protein 1 (Mus musculus, UniProt P38532); assay: inhibition of MG132-induced HSE-luciferase signal, confirmation, cell-based, NIH3T3, luminescence, dose retest (AID 2382); type: functional;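 further: NIH3T3 fibroblasts with HSF1-driven luciferase reporter stressed by proteasome inhibitor MG132; luminescence from HSF1-driven luciferase expression after 8 hours of MG132 stress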
T1 sequence (P38532 whole entry): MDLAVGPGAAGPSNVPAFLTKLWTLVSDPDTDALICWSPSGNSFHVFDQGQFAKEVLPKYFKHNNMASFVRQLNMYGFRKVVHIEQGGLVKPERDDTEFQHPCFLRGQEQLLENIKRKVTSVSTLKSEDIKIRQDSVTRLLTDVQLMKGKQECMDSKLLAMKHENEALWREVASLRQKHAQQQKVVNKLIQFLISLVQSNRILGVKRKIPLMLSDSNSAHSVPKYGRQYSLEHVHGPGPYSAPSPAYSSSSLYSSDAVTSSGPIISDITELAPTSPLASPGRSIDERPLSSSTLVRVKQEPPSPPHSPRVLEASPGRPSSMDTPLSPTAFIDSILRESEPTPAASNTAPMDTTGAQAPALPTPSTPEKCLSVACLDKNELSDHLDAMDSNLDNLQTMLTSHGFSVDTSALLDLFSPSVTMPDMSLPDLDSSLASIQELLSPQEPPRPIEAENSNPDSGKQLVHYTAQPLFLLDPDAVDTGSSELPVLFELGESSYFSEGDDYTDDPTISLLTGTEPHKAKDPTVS

[3] = molecular target: T2, Microphthalmia-associated transcription factor (Homo sapiens, UniProt O75030); assay: TRPM1 promoter luciferase signal decrease, dose response, MITF inhibitor project, cell-based, SK-MEL-5, cherry-picked, set 3 (AID 493073); type: functional
T2 sequence (O75030 whole entry): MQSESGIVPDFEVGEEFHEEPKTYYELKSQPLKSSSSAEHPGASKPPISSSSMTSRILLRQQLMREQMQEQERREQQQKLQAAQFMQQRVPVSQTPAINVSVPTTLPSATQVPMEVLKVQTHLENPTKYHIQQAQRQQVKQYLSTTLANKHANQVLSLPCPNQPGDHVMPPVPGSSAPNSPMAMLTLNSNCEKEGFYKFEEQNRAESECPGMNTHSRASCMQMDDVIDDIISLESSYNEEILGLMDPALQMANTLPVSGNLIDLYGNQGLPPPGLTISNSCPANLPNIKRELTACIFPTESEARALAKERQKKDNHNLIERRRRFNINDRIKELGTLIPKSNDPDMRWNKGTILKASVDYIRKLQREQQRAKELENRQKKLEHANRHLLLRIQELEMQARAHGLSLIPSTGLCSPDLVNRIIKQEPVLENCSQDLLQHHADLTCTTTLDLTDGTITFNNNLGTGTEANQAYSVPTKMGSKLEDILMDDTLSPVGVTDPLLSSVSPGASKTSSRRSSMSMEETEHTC

[4] = molecular target: T3, Caspase-3 (Homo sapiens, UniProt P42574); assay: procaspase-3 activation potency of dual hits, dose response, counter-screen for dual procaspase-3/7 activator project, biochemical, absorbance, PC-3 D3A mutant (AID 504328)
T3 sequence (P42574 whole entry): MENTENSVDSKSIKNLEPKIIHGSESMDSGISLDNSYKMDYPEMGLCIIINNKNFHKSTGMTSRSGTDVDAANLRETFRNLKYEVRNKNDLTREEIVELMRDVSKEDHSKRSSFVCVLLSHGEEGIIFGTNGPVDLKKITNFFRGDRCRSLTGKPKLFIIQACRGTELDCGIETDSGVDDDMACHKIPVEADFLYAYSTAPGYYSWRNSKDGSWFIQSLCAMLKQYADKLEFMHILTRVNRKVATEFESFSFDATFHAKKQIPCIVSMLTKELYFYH

[5] = molecular target: Caspase-7 (Homo sapiens, UniProt P55210); assay: procaspase-7 activators, dose response, dual procaspase-3/-7 activator project, biochemical, absorbance, human (AID 504330)
[6] = cytotoxicity in HPDE-C7 cells, cell-based, fluorescence, HTS (AID 430); type: functional; conditions: Homo sapiens
[7] = test system: Streptococcus sp. 'group A'; assay: growth inhibition of control SK(-) GAS strain, dose response, counter-screen for streptokinase expression inhibitor project, luminescence, kanamycin, BacTiterGlo, confirmation (AID 1900); type: functional, organism-based
[8] = test system: Streptococcus; assay: Group A Streptococcus viability loss, dose response, counter-screen for streptokinase expression inhibitor project, luminescence, BacTiterGlo (AID 1915); type: functional, organism-based;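 further: potency for reduction of bacterial viability or growth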
[9] = molecular target: X-box-binding protein 1 (Homo sapiens, UniProt P17861); type: functional, Cricetulus griseus;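 further: confirmatory dose-response counter-screen serving a CHOP assay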
[10] = cytotoxicity in KRAS-transformed pancreatic duct cells, primary screen, cell-based, fluorescence, HTS (AID 431); type: functional; conditions: Homo sapiens;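 further: cell line used: HPDE-C7K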
[11] = molecular target: Metabotropic glutamate receptor 4 (Homo sapiens, UniProt Q14833); assay: Modulation of the Metabotropic Glutamate Receptor mGluR4: Potency at human mGluR4. Modulation of intracellular Ca2+ using Fluo-4, AM, in CHO expressing recombinant receptor [Related pubchem assays (depositor defined):AID2437, AID2807]; type: functional, cell-based
[12] = molecular target: Metabotropic glutamate receptor 4 (Rattus norvegicus, UniProt P31423); assay: Modulation of the Metabotropic Glutamate Receptor mGluR4: Rat PAM Potency. [Related pubchem assays (depositor defined):AID2437, AID2807]; type: functional
[13] = molecular target: Voltage-dependent T-type calcium channel subunit alpha-1H (Homo sapiens, UniProt O95180); type: functional;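 further: channel activity triggered by adding a high calcium stimulation buffer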
[14] = molecular target: Luciferin 4-monooxygenase (Photinus pyralis, UniProt P08659); assay: In vitro luciferase assay using purified luciferase. [Related pubchem assays: 1299, 1270, 1295, 1375, 1287, 1281, 1293, 1291, 1289, 1280, 465, 1364, 1282, 1372, 1365, 1370, 1367, 1366, 1266, 1373, 1292, 1290, 1302, 1371, 1283, 1271, 1294, 1374, 1368, 1369 ]
[15] = test system: HEK293; assay: PMA/Ionomycin induced NF-kB luciferase assay in 293- NF-kB-Luc stable cells. [Related pubchem assays: 1299, 1270, 1295, 1375, 1287, 1281, 1293, 1291, 1289, 1280, 465, 1364, 1282, 1372, 1365, 1370, 1367, 1366, 1269, 1373, 1292, 1290, 1302, 1371, 1283, 1271, 1294, 1374, 1368, 1369 ]; type: functional, cell-based; conditions: Homo sapiens
[16] = test system: HEK293; assay: Cytotoxicity assay in HEK293 cells. [Related pubchem assays (depositor defined):AID1266, AID1269, AID1270, AID1271, AID1280, AID1281, AID1282, AID1283, AID1287, AID1289, AID1290, AID1291, AID1292, AID1293, AID1294, AID1295, AID1299, AID1302, AID1364, AID1365, AID1366, AID1367, AID1369, AID1370, AID1371, AID1372, AID1373, AID1374, AID1375, AID1384 …; type: functional, cell-based; conditions: Homo sapiens

X-box-binding protein 1, sequence (P17861 whole entry): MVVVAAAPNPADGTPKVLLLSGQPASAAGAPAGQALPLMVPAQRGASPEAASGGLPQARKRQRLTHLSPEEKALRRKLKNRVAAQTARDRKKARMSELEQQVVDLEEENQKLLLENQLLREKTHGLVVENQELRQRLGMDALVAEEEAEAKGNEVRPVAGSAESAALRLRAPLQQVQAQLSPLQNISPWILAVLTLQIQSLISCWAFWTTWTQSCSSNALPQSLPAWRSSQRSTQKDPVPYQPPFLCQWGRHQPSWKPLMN
Voltage-dependent T-type calcium channel subunit alpha-1H, sequence (O95180 whole entry): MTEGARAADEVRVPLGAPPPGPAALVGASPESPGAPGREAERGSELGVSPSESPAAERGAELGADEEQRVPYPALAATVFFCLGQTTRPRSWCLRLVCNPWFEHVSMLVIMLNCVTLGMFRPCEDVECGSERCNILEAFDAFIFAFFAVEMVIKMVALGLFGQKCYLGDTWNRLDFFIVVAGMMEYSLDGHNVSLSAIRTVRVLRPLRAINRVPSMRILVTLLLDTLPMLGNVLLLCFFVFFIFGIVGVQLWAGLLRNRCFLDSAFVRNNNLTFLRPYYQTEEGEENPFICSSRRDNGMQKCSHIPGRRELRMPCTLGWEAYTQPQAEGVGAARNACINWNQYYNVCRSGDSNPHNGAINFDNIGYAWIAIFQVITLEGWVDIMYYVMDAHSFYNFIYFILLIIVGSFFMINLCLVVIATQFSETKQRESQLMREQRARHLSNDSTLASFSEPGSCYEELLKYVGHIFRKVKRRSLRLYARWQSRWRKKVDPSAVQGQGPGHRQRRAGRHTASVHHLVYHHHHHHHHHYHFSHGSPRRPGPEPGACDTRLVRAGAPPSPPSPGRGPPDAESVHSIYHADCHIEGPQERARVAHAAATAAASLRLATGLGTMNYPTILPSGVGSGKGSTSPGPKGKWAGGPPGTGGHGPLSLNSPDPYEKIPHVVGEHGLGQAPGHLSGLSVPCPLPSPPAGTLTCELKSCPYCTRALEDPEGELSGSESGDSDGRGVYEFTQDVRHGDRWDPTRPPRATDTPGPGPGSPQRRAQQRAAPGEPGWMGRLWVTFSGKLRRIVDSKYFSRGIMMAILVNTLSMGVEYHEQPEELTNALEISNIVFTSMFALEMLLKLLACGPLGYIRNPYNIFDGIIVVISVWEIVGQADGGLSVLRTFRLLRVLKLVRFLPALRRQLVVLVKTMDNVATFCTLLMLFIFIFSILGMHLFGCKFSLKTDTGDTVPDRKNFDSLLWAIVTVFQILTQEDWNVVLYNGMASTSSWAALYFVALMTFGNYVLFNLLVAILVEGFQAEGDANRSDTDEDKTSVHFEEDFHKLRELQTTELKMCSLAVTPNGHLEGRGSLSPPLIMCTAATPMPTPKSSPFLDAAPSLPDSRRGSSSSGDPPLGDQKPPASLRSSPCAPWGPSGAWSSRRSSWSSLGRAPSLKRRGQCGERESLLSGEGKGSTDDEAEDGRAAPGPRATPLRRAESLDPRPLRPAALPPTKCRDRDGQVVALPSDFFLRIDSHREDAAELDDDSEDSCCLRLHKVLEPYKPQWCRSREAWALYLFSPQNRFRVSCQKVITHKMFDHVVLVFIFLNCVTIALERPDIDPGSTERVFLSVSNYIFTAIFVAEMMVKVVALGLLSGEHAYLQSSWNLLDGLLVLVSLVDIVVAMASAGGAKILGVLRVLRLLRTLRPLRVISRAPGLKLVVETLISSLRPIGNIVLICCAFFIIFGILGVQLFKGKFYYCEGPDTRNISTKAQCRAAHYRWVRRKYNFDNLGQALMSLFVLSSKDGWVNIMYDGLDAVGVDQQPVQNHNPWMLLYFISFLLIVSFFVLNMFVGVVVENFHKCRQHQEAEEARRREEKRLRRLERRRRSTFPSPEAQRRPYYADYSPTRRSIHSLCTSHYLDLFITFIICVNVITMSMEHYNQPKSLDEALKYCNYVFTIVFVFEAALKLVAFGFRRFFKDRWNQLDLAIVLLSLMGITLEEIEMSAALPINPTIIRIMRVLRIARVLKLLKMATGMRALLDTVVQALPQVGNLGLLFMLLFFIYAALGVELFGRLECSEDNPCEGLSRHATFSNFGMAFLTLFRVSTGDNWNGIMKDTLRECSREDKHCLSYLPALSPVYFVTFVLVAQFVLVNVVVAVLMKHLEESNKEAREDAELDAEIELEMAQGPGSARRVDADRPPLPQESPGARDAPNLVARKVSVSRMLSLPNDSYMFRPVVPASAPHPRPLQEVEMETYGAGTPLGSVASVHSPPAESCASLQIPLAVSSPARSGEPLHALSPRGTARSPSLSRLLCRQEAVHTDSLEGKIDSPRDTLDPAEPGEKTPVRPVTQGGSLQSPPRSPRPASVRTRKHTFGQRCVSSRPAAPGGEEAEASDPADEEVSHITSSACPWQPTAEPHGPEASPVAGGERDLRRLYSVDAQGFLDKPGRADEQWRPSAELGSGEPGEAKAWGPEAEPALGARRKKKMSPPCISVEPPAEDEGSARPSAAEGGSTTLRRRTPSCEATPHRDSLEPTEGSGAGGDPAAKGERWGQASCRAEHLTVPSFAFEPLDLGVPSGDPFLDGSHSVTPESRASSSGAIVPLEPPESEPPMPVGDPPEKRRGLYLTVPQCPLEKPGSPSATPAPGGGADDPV
Metabotropic glutamate receptor 4 (Homo sapiens, UniProt Q14833), sequence (Q14833 whole entry): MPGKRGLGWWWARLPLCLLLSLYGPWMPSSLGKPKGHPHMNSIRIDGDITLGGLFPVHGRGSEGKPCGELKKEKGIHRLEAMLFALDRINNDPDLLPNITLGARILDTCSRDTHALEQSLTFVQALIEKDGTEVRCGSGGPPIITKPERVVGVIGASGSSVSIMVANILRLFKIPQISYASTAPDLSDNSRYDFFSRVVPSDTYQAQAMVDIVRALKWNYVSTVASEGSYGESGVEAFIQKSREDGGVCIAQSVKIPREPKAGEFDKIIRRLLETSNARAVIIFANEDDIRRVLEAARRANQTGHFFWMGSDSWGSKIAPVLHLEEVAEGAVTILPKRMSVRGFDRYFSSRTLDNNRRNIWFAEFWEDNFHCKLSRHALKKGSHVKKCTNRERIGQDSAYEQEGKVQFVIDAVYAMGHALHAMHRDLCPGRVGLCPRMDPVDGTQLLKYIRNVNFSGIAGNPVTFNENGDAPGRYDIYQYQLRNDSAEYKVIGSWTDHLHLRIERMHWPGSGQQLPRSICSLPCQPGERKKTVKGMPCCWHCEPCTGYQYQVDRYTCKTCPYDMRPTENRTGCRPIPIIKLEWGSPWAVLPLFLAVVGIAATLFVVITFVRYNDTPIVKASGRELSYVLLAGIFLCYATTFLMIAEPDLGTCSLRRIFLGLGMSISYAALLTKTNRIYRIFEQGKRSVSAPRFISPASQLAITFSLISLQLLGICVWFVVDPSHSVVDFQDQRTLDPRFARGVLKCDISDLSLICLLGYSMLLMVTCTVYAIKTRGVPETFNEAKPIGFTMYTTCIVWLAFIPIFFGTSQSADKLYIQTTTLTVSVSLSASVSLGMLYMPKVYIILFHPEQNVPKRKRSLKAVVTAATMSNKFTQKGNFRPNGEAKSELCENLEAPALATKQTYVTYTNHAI
Metabotropic glutamate receptor 4 (Rattus norvegicus, UniProt P31423), sequence (P31423 whole entry): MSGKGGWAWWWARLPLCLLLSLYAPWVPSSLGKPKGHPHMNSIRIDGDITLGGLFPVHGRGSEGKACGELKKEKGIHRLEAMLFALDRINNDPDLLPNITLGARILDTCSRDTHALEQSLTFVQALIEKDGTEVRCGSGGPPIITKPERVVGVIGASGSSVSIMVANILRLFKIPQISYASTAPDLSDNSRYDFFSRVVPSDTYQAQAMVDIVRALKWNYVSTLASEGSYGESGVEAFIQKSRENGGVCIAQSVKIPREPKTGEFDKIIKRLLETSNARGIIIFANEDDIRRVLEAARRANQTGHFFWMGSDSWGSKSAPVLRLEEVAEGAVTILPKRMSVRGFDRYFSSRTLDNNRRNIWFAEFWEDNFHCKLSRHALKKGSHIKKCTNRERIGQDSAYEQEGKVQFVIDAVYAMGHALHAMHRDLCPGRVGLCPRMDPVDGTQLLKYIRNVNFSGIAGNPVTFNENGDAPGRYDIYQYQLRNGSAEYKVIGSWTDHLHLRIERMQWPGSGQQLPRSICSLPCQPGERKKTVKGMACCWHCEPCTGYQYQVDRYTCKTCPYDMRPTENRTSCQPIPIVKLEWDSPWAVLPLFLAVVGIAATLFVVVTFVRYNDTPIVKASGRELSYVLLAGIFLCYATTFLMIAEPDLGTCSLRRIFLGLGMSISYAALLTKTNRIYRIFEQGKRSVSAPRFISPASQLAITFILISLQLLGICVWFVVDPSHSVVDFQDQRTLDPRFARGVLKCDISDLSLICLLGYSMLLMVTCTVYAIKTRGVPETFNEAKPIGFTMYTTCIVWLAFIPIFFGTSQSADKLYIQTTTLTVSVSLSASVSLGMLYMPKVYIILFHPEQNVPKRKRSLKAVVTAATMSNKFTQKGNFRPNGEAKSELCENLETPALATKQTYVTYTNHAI
Luciferin 4-monooxygenase, sequence (P08659 whole entry): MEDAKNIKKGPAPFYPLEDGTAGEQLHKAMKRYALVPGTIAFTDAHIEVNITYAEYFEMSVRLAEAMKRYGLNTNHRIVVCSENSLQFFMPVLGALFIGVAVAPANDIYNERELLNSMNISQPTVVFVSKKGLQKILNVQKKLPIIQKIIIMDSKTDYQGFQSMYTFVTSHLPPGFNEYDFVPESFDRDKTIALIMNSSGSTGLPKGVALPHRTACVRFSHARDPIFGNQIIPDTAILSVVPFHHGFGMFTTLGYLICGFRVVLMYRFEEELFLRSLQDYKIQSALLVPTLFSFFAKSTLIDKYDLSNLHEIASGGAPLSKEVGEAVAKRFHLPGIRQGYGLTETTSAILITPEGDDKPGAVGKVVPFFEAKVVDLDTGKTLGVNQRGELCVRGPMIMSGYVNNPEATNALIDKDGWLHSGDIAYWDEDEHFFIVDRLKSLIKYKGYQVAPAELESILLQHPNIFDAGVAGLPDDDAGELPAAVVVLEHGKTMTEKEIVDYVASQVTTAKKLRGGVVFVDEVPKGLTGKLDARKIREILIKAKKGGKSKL

With `COc1ccccc1CNC(=S)Nc1ccncc1` the IC50 [1] was > 150 µM (active).

In the case of `O=C(Nc1ccc2c(c1)OCCO2)c1coc2ccccc2c1=O`, the EC50 [2] is reported as > 195 µM (not active), the AC50 [3] is reported as 46 µM (active) and the EC50 [4] is reported as > 85.3 µM (inactive). For the same molecule, the EC50 [5] was > 85.3 µM (inactive).

With `O=C1c2n[nH]c(-c3ccccc3O)c2C(c2cccc(Cl)c2)N1Cc1ccco1` (stereo unspecified) the EC50 [6] was 7.07 µM (active), the EC50 [7] was 6.78 µM (active) and the EC50 [8] was > 150 µM (inconclusive). For the same molecule, the “Absolute IC50 (XBP1)” value [9] was 10 µM and the EC50 [10] was 9.83 µM (active).

For `O=C(Nc1ccc(Cl)c(Cl)c1)c1ccsc1`, the EC50 [11] was 12.7 µM (active) and the EC50 [12] was 9.23 µM (active).

In the case of `Cc1csc(NC(=O)c2sc3nc(-c4cccs4)ccc3c2N)n1`, the EC50 [13] is reported as 6.54 µM (active), the EC50 [14] is reported as > 8 µM (not active) and the EC50 [15] is reported as 15.8 µM (not active). For the same molecule, the EC50 [16] was > 8 µM (inactive).
